Columns and labels:
Format in all cases: in vivo
[1] = system: parent elite stiff stalk inbred corn; experiment: Preemergence herbicide application in greenhouse: fresh shoot weight and visual injury; conditions: for pest or weed control at 200 g/ha: Zea mays, pre-emergence, 672 h, read-out: % Visual Injury; for Fresh Weight: fresh shoots weighed 4 weeks after treatment, untreated 36.7 g
[2] = system: Heterozygous GAT-HRA corn; experiment: as above; conditions: for pest or weed control at 200 g/ha: Zea mays, pre-emergence, 672 h, read-out: % Visual Injury; for Fresh Weight: fresh shoots weighed 4 weeks after treatment, untreated 47.0 g
[3] = system: parent elite stiff stalk inbred corn; experiment: Postemergence herbicide application in greenhouse: fresh shoot weight and visual injury; conditions: for pest or weed control at 200 g/ha: Zea mays, post-emergence, read-out: % Visual Injury; for Fresh Weight: weighed 2 weeks after treatment, untreated 76.4 g
[4] = system: Heterozygous GAT-HRA corn; experiment: as above; conditions: for pest or weed control at 200 g/ha: Zea mays, post-emergence, read-out: % Visual Injury; for Fresh Weight: weighed 2 weeks after treatment, untreated 98.8 g
[5] = preemergence, 200 g/ha, 0% no injury, 100% plant death, mean of four replications
[6] = preemergence, 200 g/ha, mean of four replications
[7] = postemergence, 200 g/ha (glyphosate 3472 g ae/ha, glufosinate ammonium 1870 g/ha), 0% no injury, 100% plant death, mean of four replications
[8] = postemergence, 200 g/ha (glyphosate 3472 g ae/ha, glufosinate ammonium 1870 g/ha), mean of four replications

For `COc1cc(OC)nc(NC(=O)NS(=O)(=O)c2c(-c3nnn(C)n3)cnn2C)n1` [Azimsulfuron], the pest or weed control at 200 g/ha [1, 5] was 100%, the “Fresh Weight” value [1, 6] was 0.0 g and the pest or weed control at 200 g/ha [2, 5] was 40%. The “Fresh Weight” value [2, 6] was 49.1 g, the pest or weed control at 200 g/ha [3, 7] was 100% and the “Fresh Weight” value [3, 8] was 1.5 g. The pest or weed control at 200 g/ha [4, 7] was 20% and the “Fresh Weight” value [4, 8] was 87.9 g.

In the case of `COC(=O)c1sccc1S(=O)(=O)NC(=O)Nc1nc(C)nc(OC)n1` [Thifensulfuron-methyl], the pest or weed control at 200 g/ha [1, 5] is reported as 88%, the “Fresh Weight” value [1, 6] is reported as 15.2 g and the pest or weed control at 200 g/ha [2, 5] is reported as 3%. The “Fresh Weight” value [2, 6] was 36.0 g, the pest or weed control at 200 g/ha [3, 7] was 98% and the “Fresh Weight” value [3, 8] was 4.2 g. For the same compound, the pest or weed control at 200 g/ha [4, 7] was 10% and the “Fresh Weight” value [4, 8] was 86.6 g.

In the case of `COc1cc(OC)nc(Sc2cccc(Cl)c2C(=O)[O-])n1.[Na+]` [Pyrithiobac Na^+, Pyrithiobac], the “% Visual Injury” value [1, 5] is reported as 100%, the “Fresh Weight” value [1, 6] is reported as 0.0 g and the “% Visual Injury” value [2, 5] is reported as 0%. The “Fresh Weight” value [2, 6] was 48.6 g, the “% Visual Injury” value [3, 7] was 100% and the “Fresh Weight” value [3, 8] was 2.8 g. The “% Visual Injury” value [4, 7] was 9% and the “Fresh Weight” value [4, 8] was 87.9 g.

`COc1nc(C)nc(NC(=O)NS(=O)(=O)c2ccccc2Cl)n1` [Chlorsulfuron] was tested, and the pest or weed control at 200 g/ha [1, 5] was 100%, the “Fresh Weight” value [1, 6] was 0.0 g and the pest or weed control at 200 g/ha [2, 5] was 33%. For the same compound, the “Fresh Weight” value [2, 6] was 48.4 g, the pest or weed control at 200 g/ha [3, 7] was 100% and the “Fresh Weight” value [3, 8] was 1.7 g. The pest or weed control at 200 g/ha [4, 7] was 13% and the “Fresh Weight” value [4, 8] was 105.2 g.

For `COc1nc(C)nc(NC(=O)NS(=O)(=O)c2ccccc2CCC(F)(F)F)n1` [Prosulfuron], the pest or weed control at 200 g/ha [1, 5] was 68%, the “Fresh Weight” value [1, 6] was 20.9 g and the pest or weed control at 200 g/ha [2, 5] was 9%. For the same compound, the “Fresh Weight” value [2, 6] was 43.3 g, the pest or weed control at 200 g/ha [3, 7] was 25% and the “Fresh Weight” value [3, 8] was 53.6 g. The pest or weed control at 200 g/ha [4, 7] was 29% and the “Fresh Weight” value [4, 8] was 91.3 g.

For `CCOc1nc(NC)nc(NC(=O)NS(=O)(=O)c2ccccc2C(=O)OC)n1` [Ethametsulfuron-methyl], the pest or weed control at 200 g/ha [1] was 100%, the “Fresh Weight” value [1, 6] was 1.6 g and the pest or weed control at 200 g/ha [2] was 88%. For the same compound, the “Fresh Weight” value [2, 6] was 50.1 g, the pest or weed control at 200 g/ha ([3]; […]) was 96% and the “Fresh Weight” value [3, 8] was 5.6 g. For the same compound, the pest or weed control at 200 g/ha ([4]; […]) was 6% and the “Fresh Weight” value [4, 8] was 98.0 g.

`COc1cc(OC)nc(NC(=O)NS(=O)(=O)c2ncccc2C(=O)N(C)C)n1` [Nicosulfuron] was tested, and the pest or weed control at 200 g/ha [1, 5] was 43%, the “Fresh Weight” value [1, 6] was 33.6 g and the pest or weed control at 200 g/ha [2, 5] was 0%. The “Fresh Weight” value [2, 6] was 50.3 g, the pest or weed control at 200 g/ha [3, 7] was 24% and the “Fresh Weight” value [3, 8] was 62.7 g. For the same compound, the pest or weed control at 200 g/ha [4, 7] was 0% and the “Fresh Weight” value [4, 8] was 94.7 g.

For `COC(=O)c1ccc(C(F)(F)F)nc1S(=O)(=O)NC(=O)Nc1nc(OC)cc(OC)n1` [Flupyrsulfuron-methyl Na^+, Flupyrsulfuron-methyl], the “% Visual Injury” value [1, 5] was 87%, the “Fresh Weight” value [1, 6] was 23.6 g and the “% Visual Injury” value [2, 5] was 90%. The “Fresh Weight” value [2, 6] was 45.8 g, the “% Visual Injury” value [3, 7] was 95% and the “Fresh Weight” value [3, 8] was 5.2 g. For the same compound, the “% Visual Injury” value [4, 7] was 4% and the “Fresh Weight” value [4, 8] was 95.5 g.

With `COC(=O)c1ccc(I)cc1S(=O)(=O)NC(=O)Nc1nc(C)nc(OC)n1` [Iodosulfuron-methyl Na^+, Iodosulfuron-methyl] the “% Visual Injury” value [1, 5] was 92%, the “Fresh Weight” value [1, 6] was 24.4 g and the “% Visual Injury” value [2, 5] was 5%. The “Fresh Weight” value [2, 6] was 52.5 g, the “% Visual Injury” value [3, 7] was 100% and the “Fresh Weight” value [3, 8] was 3.5 g. For the same compound, the “% Visual Injury” value [4, 7] was 1% and the “Fresh Weight” value [4, 8] was 95.0 g.

For `COCc1cnc(C2=NC(C)(C(C)C)C(=O)N2)c(C(=O)O)c1` (centres unmarked) [Imazamox], the pest or weed control at 200 g/ha [1, 5] was 99%, the “Fresh Weight” value [1, 6] was 0.8 g and the pest or weed control at 200 g/ha [2, 5] was 13%. The “Fresh Weight” value [2, 6] was 47.5 g, the pest or weed control at 200 g/ha [3, 7] was 100% and the “Fresh Weight” value [3, 8] was 2.2 g. The pest or weed control at 200 g/ha [4, 7] was 4% and the “Fresh Weight” value [4, 8] was 90.9 g.

With `CCCOc1nn(C(=O)NS(=O)(=O)c2ccccc2C(=O)OC)c(=O)n1C` [Propoxycarbazone Na^+, Propoxycarbazone] the “% Visual Injury” value [1, 5] was 100%, the “Fresh Weight” value [1, 6] was 0.6 g and the “% Visual Injury” value [2, 5] was 100%. The “Fresh Weight” value [2, 6] was 46.7 g, the “% Visual Injury” value [3, 7] was 100% and the “Fresh Weight” value [3, 8] was 1.9 g. The “% Visual Injury” value [4, 7] was 9% and the “Fresh Weight” value [4, 8] was 101.2 g.

In the case of `CC(C)C1(C)N=C(c2nc3ccccc3cc2C(=O)O)NC1=O` (centres unmarked) [Imazaquin], the pest or weed control at 200 g/ha [1] is reported as 99%, the “Fresh Weight” value [1, 6] is reported as 1.5 g and the pest or weed control at 200 g/ha [2] is reported as 28%. For the same compound, the “Fresh Weight” value [2, 6] was 45.4 g, the pest or weed control at 200 g/ha ([3]; […]) was 100% and the “Fresh Weight” value [3, 8] was 4.4 g. For the same compound, the pest or weed control at 200 g/ha ([4]; […]) was 2% and the “Fresh Weight” value [4, 8] was 113.3 g.

`COC(=O)c1cccc(C)c1S(=O)(=O)NC(=O)Nc1nc(OCC(F)(F)F)nc(N(C)C)n1` [Triflusulfuron-methyl] was tested, and the “% Visual Injury” value [1, 5] was 100%, the “Fresh Weight” value [1, 6] was 26.3 g and the “% Visual Injury” value [2, 5] was 5%. For the same compound, the “Fresh Weight” value [2, 6] was 53.5 g, the “% Visual Injury” value [3, 7] was 100% and the “Fresh Weight” value [3, 8] was 2.1 g. For the same compound, the “% Visual Injury” value [4, 7] was 8% and the “Fresh Weight” value [4, 8] was 110.9 g.
